The nature of assay [1]: Two step luminescent test of GST-3, reactions without GST enzyme. It counts as biochemical. As for the experimental part:
(§1) In the first step, GST-3 was added to a mixture containing a GST enzyme with or without glutathione. At different times after reaction initiation, a portion of the reaction was mixed with a luciferase reaction mixture. Reactions in which light production increased over time indicate that the derivative, GST-3, is a substrate for GST and can be used in an assay to detect GST and/or reduced glutathione (GSH).
(§2) Various GST enzyme forms were used to test the use of GST-3 as a substrate for GST to detect GST or GSH. All components except for the GST enzyme were added.

Assay [2] relates to porcine GST (Sigma). Briefly: Two step luminescent test of GST-3 as GST substrate, porcine GST. In kind it is biochemical. As for the experimental part: as §1, §2
Assay [3] relates to equine GST (Sigma). Briefly: Two step luminescent test of GST-3 as GST substrate, equine GST. In kind it is biochemical. As for the experimental part:
as §1, §2

Assay [4] deals with T1, S. japonica GST (Sigma) (Schistosoma japonicum, UniProt P08515).
T1 construct: purchased Sigma
T1 sequence (P08515 whole entry): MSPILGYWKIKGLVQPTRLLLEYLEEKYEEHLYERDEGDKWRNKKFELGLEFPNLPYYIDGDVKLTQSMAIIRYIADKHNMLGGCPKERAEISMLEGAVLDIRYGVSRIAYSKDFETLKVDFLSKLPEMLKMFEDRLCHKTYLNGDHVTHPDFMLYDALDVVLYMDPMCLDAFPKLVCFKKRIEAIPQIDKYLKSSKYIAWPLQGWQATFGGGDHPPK
Briefly: Two step luminescent test of GST-3 as GST substrate, S. japonica GST. It counts as biochemical. As for the experimental part: as §1, §2

The target in assay [5] is T2, GST (Promega) (Schistosoma japonicum, UniProt P08515).
T2 construct: purchased Promega
T2 sequence (P08515 whole entry): as above
Briefly: GSSG measurement with other luciferin derivatives (luminescence). It counts as biochemical. Particulars: GSSG 0.0 μM, luminescence without GSSG subtracted. How it is done:
Oxidized glutathione was serially diluted from a 10 mM stock in water to 0, 0.1, 0.5 and 2.5 uM into three different 96-well luminometer plates with duplicate reactions performed. A 30 μl sample of the GST 30 stock was diluted to 3 ml with GSH Glo Reaction Buffer (Promega), and 25 μl added to one of the plates (“30”). A 30 μl sample of GST 28 was diluted to 3 ml with GSH Glo Reaction Buffer, and 25 μl added to a second plate (“28”). A 110 μL sample of GST-22 was diluted to 3 ml with GSH Glo Reaction Buffer, and 25 μl added to the third plate (“GST-22” or “NT”). 50 μl of GSH Glo Reaction Buffer was then added to half the samples of each plate. 25 μl GSH Glo Reaction Buffer with DTT (150 μl of 100 mM DTT to 15 ml of GSH Glo Reaction Buffer) was added to the other half of the samples in each of the plates.
A 60 μl sample of GST (Promega) was diluted to 1 ml with GSH Glo Reaction Buffer, and 50 μl added to duplicate columns of each plate. […] The resulting luminescence was collected, and the duplicates averaged. The luminescence measured in the absence of GSSG was subtracted from that of the three GSSG concentrations, and the resulting values are presented in Table 6.

A short description of assay [6]: Fluorescent detection using Coumarin derivatives, control wells with only buffer (no GST). The following applies: reduced glutathione present, 1, 3, 5 and 20 minutes. In kind it is biochemical. As for the experimental part: (§3) A Prionex® solution was made by mixing 200 μl of 10% Prionex® (Sigma) with 9.8 ml of 10 mM potassium phosphate buffer, pH 7.4, and 75 μl added to all wells of a 96-well, microtiter plate (“sample plate”). Stock solutions (2 mg/ml) of the GST enzymes GST (Promega Corp. V689B), GST A, GST B, and GST P (purified to have less than 1 mole of GSH per mole of protein) were diluted by addition of 12 ul of the enzyme to 150 ul of 10 mM Potassium Phosphate buffer pH 7.4/Prionex solution. These diluted stocks were then added to the wells. 75 ul of the diluted stocks were added to the wells in row A, and 75 ul transferred from row A through to row H to generate 1:1 serially diluted enzyme solutions.
(§4) To a different, 96-well microtiter plate, 25 μl of diluted PBI 4153 (25 μl 1 mg/ml solution of PBI 4153 with 5 ml of 10 mM potassium phosphate pH 7.4) was added to wells A1-H10 of the plate (“4153”). […]
(§5) If one or more of the GST enzyme forms can catalyze the Coumarin compound in the presence of glutathione, the samples containing a GST enzyme form will have an increase in fluorescence. The better the GST enzyme form can utilize the Coumarin derivative, the more rapid the increase in fluorescence, and the lower the concentrations of GST enzyme needed to be able to produce a substantial increase in fluorescence over time.

Assay [7] has as its system GST A. Briefly: Fluorescent detection of glutathione using Coumarin derivatives, GST A. In kind it is biochemical. The following applies: images at 1, 3, 5 and 20 minutes post GST enzyme addition. As for the experimental part:
as §3, §4, §5

In assay [8] the test system is GST M. Briefly: Fluorescent detection of glutathione using Coumarin derivatives, GST M. The following applies: images at 1, 3, 5 and 20 minutes post GST enzyme addition. In kind it is biochemical.
The target in assay [9] is GST P (Homo sapiens, UniProt P09211). Briefly: Fluorescent detection of glutathione using Coumarin derivatives, GST P. In kind it is biochemical. Particulars: images at 1, 3, 5 and 20 minutes post GST enzyme addition. How it is done:
as §3, §4, §5

In assay [10] the target is T3, GST (Promega Corp. V689B) (Schistosoma japonicum, UniProt P08515).
T3 construct: purchased Promega Corp. V689B
Briefly: Fluorescent detection of glutathione using Coumarin derivatives, GST from Promega. It counts as biochemical. The following applies: images at 1, 3, 5 and 20 minutes post GST enzyme addition. How it is done:
as §3, §4, §5

The conditions of assay [11]: numerous reports (Srivastava et al. 2010); leading to cell death by apoptosis or necrosis; cited from earlier work.

GST P, sequence (P09211 whole entry): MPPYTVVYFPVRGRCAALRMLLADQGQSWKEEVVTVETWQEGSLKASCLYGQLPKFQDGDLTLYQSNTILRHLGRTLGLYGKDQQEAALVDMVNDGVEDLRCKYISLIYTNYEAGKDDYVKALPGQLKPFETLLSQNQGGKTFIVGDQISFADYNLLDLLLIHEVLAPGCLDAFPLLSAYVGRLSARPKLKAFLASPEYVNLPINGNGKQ

On to `O=C(O)[C@H]1CSC(c2ccc3cc(Oc4ccc(C(F)(F)F)cc4[N+](=O)[O-])ccc3n2)=N1` [GST-3, 6-(2 nitro-4-trifluoromethyl-phenoxy)quinolinyl-luciferin], for which the “Luminescence values (RLUs)” value is reported as 33.26 RLUs in assay [1] (reaction 1: no GST, no glutathione, 0.1 minutes); 38.2 RLUs in [1] (reaction 1: no GST, no glutathione, 5 minutes); 32.17 RLUs in assay [1] (reaction 1: no GST, no glutathione, 10 minutes); 35.53 RLUs in assay [1] (reaction 1: no GST, no glutathione, 15 minutes); 35.72 RLUs in assay [1] (reaction 2: no GST, with glutathione, 0.1 minutes); 36.07 RLUs in assay [1] (reaction 2: no GST, with glutathione, 5 minutes). Also, the “Luminescence values (RLUs)” value was 40.85 RLUs in assay [1] (reaction 2: no GST, with glutathione, 10 minutes); 46.43 RLUs in assay [1] (reaction 2: no GST, with glutathione, 15 minutes); 46.95 RLUs in assay [2] (reaction 5: porcine GST, no glutathione, 0.1 minutes); 51.85 RLUs in [2] (reaction 5: porcine GST, no glutathione, 5 minutes); 51.15 RLUs in assay [2] (reaction 5: porcine GST, no glutathione, 10 minutes); 48.41 RLUs in assay [2] (reaction 5: porcine GST, no glutathione, 15 minutes). The “Luminescence values (RLUs)” value in assay [2] (reaction 6: porcine GST with glutathione, 0.1 minutes) is reported as 71.1 RLUs; in [2] (reaction 6: porcine GST with glutathione, 5 minutes), 269.1 RLUs; in assay [2] (reaction 6: porcine GST with glutathione, 10 minutes), 463.2 RLUs; in assay [2] (reaction 6: porcine GST with glutathione, 15 minutes), 619.3 RLUs; in assay [3] (reaction 7: equine GST, no glutathione, 0.1 minutes), 30.42 RLUs; in assay [3] (reaction 7: equine GST, no glutathione, 5 minutes), 32.98 RLUs. Besides, the “Luminescence values (RLUs)” value in assay [3] (reaction 7: equine GST, no glutathione, 10 minutes) is on record as 38.75 RLUs; in assay [3] (reaction 7: equine GST, no glutathione, 15 minutes), 38.39 RLUs; in assay [3] (reaction 8: equine GST with glutathione, 0.1 minutes) it was 252.2 RLUs; in assay [3] (reaction 8: equine GST with glutathione, 5 minutes), 3662 RLUs; in assay [3] (reaction 8: equine GST with glutathione, 10 minutes) it was 7629 RLUs; in assay [3] (reaction 8: equine GST with glutathione, 15 minutes), 9324 RLUs. The “Luminescence values (RLUs)” value in [4] (reaction 3: S. japonica GST, no glutathione, 0.1 minutes) came to 32.67 RLUs; in assay [4] (reaction 3: S. japonica GST, no glutathione, 5 minutes), 32.42 RLUs; in assay [4] (reaction 3: S. japonica GST, no glutathione, 10 minutes), 38.65 RLUs; in [4] (reaction 3: S. japonica GST, no glutathione, 15 minutes), 33.82 RLUs; in [4] (reaction 4: S. japonica GST with glutathione, 0.1 minutes) it was 32.57 RLUs; in [4] (reaction 4: S. japonica GST with glutathione, 5 minutes) it was 40.79 RLUs. Also, the “Luminescence values (RLUs)” value in assay [4] (reaction 4: S. japonica GST with glutathione, 10 minutes) stood at 48.64 RLUs; in assay [4] (reaction 4: S. japonica GST with glutathione, 15 minutes), 61.54 RLUs.

As for `Cc1ccc(S(=O)(=O)Oc2ccc3nc(C4=N[C@@H](C(=O)O)CS4)sc3c2)c([N+](=O)[O-])c1` [GST-22, Luciferin 2-nitro-4-methylbenzenesulfonate], the “Luminescence, GST with DTT” value in [5] (GST with DTT) is given as 0. Moreover, the “Luminescence, No DTT” value in assay [5] (without enzyme and DTT) was 0. Besides, the “Luminescence, With DTT” value in assay [5] (without enzyme but with DTT) stood at 0.

`Cc1cc(=O)oc2cc(OS(=O)(=O)c3ccc([N+](=O)[O-])cc3)ccc12` [PBI 4146]: the “Increase in fluorescence in control wells” value in [6] is “no apparent increase in fluorescence”. Besides, the “Utilization of the Coumarin compound (increase in fluorescence)” value in assay [7] is reported as “either did not utilize this compound or utilized it at very, very slow rate”; in assay [8], “can rapidly utilize the Coumarin compound”; in assay [9] it was “either did not utilize this compound or utilized it at very, very slow rate”; in assay [10], “can also utilize the compound, but at an even slower rate than GST M”.

Consider `Cc1cc(=O)oc2cc(OS(=O)(=O)c3ccc([N+](=O)[O-])c4ccccc34)ccc12` [PBI 4153], for which the “Increase in fluorescence in control wells” value in assay [6] is listed as “no apparent increase in fluorescence”. The “Utilization of the Coumarin compound (increase in fluorescence)” value was “can also utilize the compound, but at a slower rate” in [7]; “can rapidly utilize the Coumarin compound as a substrate” in assay [8]; “either did not utilize this compound or utilized it at a very, very slow rate” in assay [9]; “also utilized the compound but at an even slower rate than GST A” in assay [10].

In the case of `CC(=O)Nc1ccc(O)cc1` [acetaminophen], in assay [11], the “Effect on the ratio of GSH to GSSG” value is given as “dramatically reduce the ratio of GSH to GSSG”.

In the case of `NNC(=O)c1ccncc1` [isoniazid], in assay [11], the “Effect on the ratio of GSH to GSSG” value is recorded as “dramatically reduce the ratio of GSH to GSSG”.

`CC/C(=C(\c1ccccc1)c1ccc(OCCN(C)C)cc1)c1ccccc1` [tamoxifen]: the “Effect on the ratio of GSH to GSSG” value in [11] is recorded as “dramatically reduce the ratio of GSH to GSSG”.
